{"source": "patent US20200276139A1", "about": "(Evoke Pharma, Inc., priority 2017, published 2020)", "key": {"[1]": {"assay": "Study METO-IN-006: open-label, randomized, 4-treatment crossover pharmacokinetic/bioequivalence study of intranasal metoclopramide (Gimoti 15, 16, 17 mg) vs Reglan Tablets 10 mg", "type": "in vivo, human", "conditions": "for AUC0-inf Inter-CV % (Between-Subject) / AUC0-inf Intra-CV % (Within-Subject) / AUC0-t Inter-CV % (Between-Subject) / AUC0-t Intra-CV % (Within-Subject) / Cmax Inter-CV % (Between-Subject) / Cmax Intra-CV % (Within-Subject): bioequivalence analysis over all treatments", "excerpt": "In the study, approximately 108 healthy subjects may be enrolled to allow approximately 100 subjects to complete the study.\nThe pharmacokinetic study will be an open-label, randomized, 4-treatment, 4-period, 4-sequence crossover study. […] Further, the subjects will undergo screening, in which the eligibility of the subjects will be assessed after completion of inclusion and exclusion criteria. […] Samples will be collected over many hours after the dose. Subjects will return to the clinic after the minimum washout for subsequent doses until the four-period cross-over is completed.\nBlood samples will be collected prior to dosing, and at predetermined time periods after each dose. […] Relevant pharmacokinetic parameters will be summarized using descriptive statistics.\nCollect blood from a subject. • 2. Gently mix the collected blood prior to centrifugation and place immediately on ice. • 3. Centrifuge the sample in a refrigerated centrifuge. • 4. Immediately following centrifugation, gently remove plasma from the packed cells. • 5. Freeze the plasma samples immediately at approximately −20° C. or lower."}, "[2]": {"conditions": "Reglan package insert; cited from earlier work"}, "[3]": {"assay": "Study METO-IN-006: open-label, randomized, 4-treatment crossover pharmacokinetic/bioequivalence study of intranasal metoclopramide (Gimoti 15, 16, 17 mg) vs Reglan Tablets 10 mg", "type": "in vivo, human", "conditions": "overall population; 16 and 17 mg doses; prior comparative bioavailability study"}}, "data": [{"smiles": "CCN(CC)CCNC(=O)c1cc(Cl)c(N)cc1OC", "note": "[metoclopramide, 4-amino-5-chloro-N-(2-(diethylamino)ethyl)-2-methoxybenzamide]", "values": [{"measurement": "AUC0-inf Inter-CV % (Between-Subject)", "setting": "[1]; Female", "result": 43.72, "unit": "%"}, {"measurement": "AUC0-inf Intra-CV % (Within-Subject)", "setting": "[1]; Female", "result": 48.14, "unit": "%"}, {"measurement": "AUC0-t Inter-CV % (Between-Subject)", "setting": "[1]; Female", "result": 43.12, "unit": "%"}, {"measurement": "AUC0-t Intra-CV % (Within-Subject)", "setting": "[1]; Female", "result": 52.62, "unit": "%"}, {"measurement": "Cmax Inter-CV % (Between-Subject)", "setting": "[1]; Female", "result": 35.03, "unit": "%"}, {"measurement": "Cmax Intra-CV % (Within-Subject)", "setting": "[1]; Female", "result": 58.04, "unit": "%"}, {"measurement": "AUC0-inf Inter-CV % (Between-Subject)", "setting": "[1]; Male", "result": 44.81, "unit": "%"}, {"measurement": "AUC0-inf Intra-CV % (Within-Subject)", "setting": "[1]; Male", "result": 55.82, "unit": "%"}, {"measurement": "AUC0-t Inter-CV % (Between-Subject)", "setting": "[1]; Male", "result": 52.65, "unit": "%"}, {"measurement": "AUC0-t Intra-CV % (Within-Subject)", "setting": "[1]; Male", "result": 62.88, "unit": "%"}, {"measurement": "Cmax Inter-CV % (Between-Subject)", "setting": "[1]; Male", "result": 54.25, "unit": "%"}, {"measurement": "Cmax Intra-CV % (Within-Subject)", "setting": "[1]; Male", "result": 78.31, "unit": "%"}, {"measurement": "AUC∞, AUCt, and Cmax, women versus men", "setting": "[1]; each dose of metoclopramide tested", "result": "significantly higher in women than in men"}, {"measurement": "Treatment Emergent Adverse Events (TEAEs) and other safety parameters, males vs females", "setting": "[1]; review of data of both studies", "result": "no differences between males and females"}, {"measurement": "plasma protein binding", "setting": "[2]", "result": "approximately 30%"}, {"measurement": "volume distribution of metoclopramide", "setting": "[2]", "result": "approximately 3.5 L/kg"}, {"measurement": "bioequivalence criteria for AUC", "setting": "[3]", "result": "met the bioequivalence criteria"}]}]}
